Source: PubChem BioAssay AID180 (DTP/NCI, 2004)
Where “and” joins values, the source holds several entries; their conditions need not be identical. Equal entries are not always repeated.

System: BDF1 mice, Adenocarcinoma 755 s.c., tumor weight T/C
Test: NCI In Vivo Anticancer Drug Screen. Data for tumor model Adenocarcinoma 755 (subcutaneous) in B6D2F1 (BDF1) mice
Details: endpoint: mean tumor weight, higher = larger tumour
Method in brief: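 Transplantable tumor implanted; mice dosed with compound or vehicle; survival or tumor size recorded; ratio of treated to vehicle control reported.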

[1] = dose: 25.0 mg/kg/injection, schedule: Q01DX011 (ip), vehicle: carboxymethylcellulose (CMC)
[2] = dose: 100.0 mg/kg/injection, schedule: Q01DX011 (ip), vehicle: carboxymethylcellulose (CMC)
[3] = dose: 15.0 mg/kg/injection, schedule: Q01DX011 (ip), vehicle: methylcellulose (MC)
[4] = dose: 31.0 mg/kg/injection, schedule: Q01DX011 (ip), vehicle: methylcellulose (MC)
[5] = dose: 62.0 mg/kg/injection, schedule: Q01DX011 (ip), vehicle: methylcellulose (MC)
[6] = dose: 125.0 mg/kg/injection, schedule: Q01DX011 (ip), vehicle: methylcellulose (MC)
[7] = dose: 250.0 mg/kg/injection, schedule: Q01DX011 (ip), vehicle: methylcellulose (MC)
[8] = dose: 12.5 mg/kg/injection, schedule: Q01DX011 (ip), vehicle: methylcellulose (MC)
[9] = dose: 25.0 mg/kg/injection, schedule: Q01DX011 (ip), vehicle: methylcellulose (MC)

## C[C@]12CC[C@H](OC3OC(CO)C(O)C(O)C3O)C[C@H]1CC[C@@H]1[C@@H]2CC[C@]2(C)[C@@H](C3=CCOC3=O)CC[C@]12O (stereo not given in full)
dose: 0.13 mg/kg/injection, schedule: Q01DX011 (ip), vehicle: saline
  T/C: 34 % of control
dose: 0.25 mg/kg/injection, schedule: Q01DX011 (ip), vehicle: saline
  T/C: 35 % of control
dose: 0.5 mg/kg/injection, schedule: Q01DX011 (ip), vehicle: saline
  T/C: 22 % of control and 44 % of control
dose: 1.0 mg/kg/injection, schedule: Q01DX011 (ip), vehicle: saline
  T/C: 3 % of control

## FC(F)(F)c1nc(=S)c2[nH]cnc2[nH]1
dose: 6.0 mg/kg/injection, schedule: Q01DX011 (ip), vehicle: carboxymethylcellulose (CMC)
  T/C: 70 % of control
[1]
  T/C: 81 % of control
[2]
  T/C: 89 % of control

## CC(=O)[C@H]1CC[C@H]2[C@@H]3C[C@H](F)C4=CC(=O)CC[C@]4(C)[C@H]3C(=O)C[C@]12C
dose: 3.5 mg/kg/injection, schedule: Q01DX011 (sc), vehicle: steriod suspending solution
  T/C: 82 % of control
dose: 7.0 mg/kg/injection, schedule: Q01DX011 (sc), vehicle: steriod suspending solution
  T/C: 66 % of control
dose: 55.0 mg/kg/injection, schedule: Q01DX011 (sc), vehicle: steriod suspending solution
  T/C: 15 % of control and 20 % of control
dose: 110.0 mg/kg/injection, schedule: Q01DX011 (sc), vehicle: steriod suspending solution
  T/C: 13 % of control and 14 % of control
dose: 220.0 mg/kg/injection, schedule: Q01DX011 (sc), vehicle: steriod suspending solution
  T/C: 3 % of control and 8 % of control

## CCCOC(=O)C1(N)CCCC1
dose: 12.5 mg/kg/injection, schedule: Q01DX011 (ip), vehicle: carboxymethylcellulose (CMC)
  T/C: 79 % of control
[1]
  T/C: 44 % of control
dose: 50.0 mg/kg/injection, schedule: Q01DX011 (ip), vehicle: carboxymethylcellulose (CMC)
  T/C: 24 % of control
[2]
  T/C: 7 % of control

## C[C@]12CCC(=O)C=C1CC[C@H]1[C@@H]3CC[C@@]4(OCC4=O)[C@@]3(C)C[C@H](O)[C@@]12F
dose: 75.0 mg/kg/injection, schedule: Q01DX011 (sc), vehicle: steriod suspending solution
  T/C: 13 % of control
dose: 150.0 mg/kg/injection, schedule: Q01DX011 (sc), vehicle: steriod suspending solution
  T/C: 11 % of control

## O=C(O)c1ccc(-c2ccccc2)cc1
dose: 200.0 mg/kg/injection, schedule: Q01DX011 (ip), vehicle: carboxymethylcellulose (CMC)
  T/C: 80 % of control

## Nc1nc(Cl)cc(Nc2ccccc2Cl)n1
[3]
  T/C: 110 % of control
[4]
  T/C: 49 % of control
[5]
  T/C: 89 % of control
[6]
  T/C: 89 % of control
[7]
  T/C: 75 % of control

## CSc1nc(=O)cc2[nH]c(O)cn12
dose: 30.0 mg/kg/injection, schedule: Q01DX011 (ip), vehicle: carboxymethylcellulose (CMC)
  T/C: 90 % of control
dose: 60.0 mg/kg/injection, schedule: Q01DX011 (ip), vehicle: carboxymethylcellulose (CMC)
  T/C: 98 % of control
dose: 120.0 mg/kg/injection, schedule: Q01DX011 (ip), vehicle: carboxymethylcellulose (CMC)
  T/C: 50 % of control
dose: 240.0 mg/kg/injection, schedule: Q01DX011 (ip), vehicle: carboxymethylcellulose (CMC)
  T/C: 118 % of control

## CC/C(=C(/CC)c1ccc(O)cc1)c1ccc(O)cc1
dose: 40.0 mg/kg/injection, schedule: Q01DX011 (sc), vehicle: steriod suspending solution
  T/C: 114 % of control
dose: 41.2 mg/kg/injection, schedule: Q01DX011 (sc), vehicle: steriod suspending solution
  T/C: 53 % of control
dose: 62.5 mg/kg/injection, schedule: Q01DX011 (sc), vehicle: steriod suspending solution
  T/C: 41 % of control
dose: 68.66 mg/kg/injection, schedule: Q01DX011 (sc), vehicle: steriod suspending solution
  T/C: 45 % of control
dose: 80.0 mg/kg/injection, schedule: Q01DX011 (sc), vehicle: steriod suspending solution
  T/C: 178 % of control
dose: 103.0 mg/kg/injection, schedule: Q01DX011 (sc), vehicle: steriod suspending solution
  T/C: 38 % of control and 44 % of control and 50 % of control
dose: 125.0 mg/kg/injection, schedule: Q01DX011 (sc), vehicle: steriod suspending solution
  T/C: 33 % of control
dose: 160.0 mg/kg/injection, schedule: Q01DX011 (sc), vehicle: steriod suspending solution
  T/C: 111 % of control
dose: 250.0 mg/kg/injection, schedule: Q01DX011 (sc), vehicle: steriod suspending solution
  T/C: 48 % of control
dose: 320.0 mg/kg/injection, schedule: Q01DX011 (sc), vehicle: steriod suspending solution
  T/C: 98 % of control

## O=C(Nc1cccc(C2=NCCN2)c1)c1ccc(N=Nc2ccc(C(=O)Nc3cccc(C4=NCCN4)c3)cc2)cc1
[3]
  T/C: 81 % of control
dose: 30.0 mg/kg/injection, schedule: Q01DX011 (ip), vehicle: methylcellulose (MC)
  T/C: 70 % of control
dose: 60.0 mg/kg/injection, schedule: Q01DX011 (ip), vehicle: methylcellulose (MC)
  T/C: 68 % of control
dose: 120.0 mg/kg/injection, schedule: Q01DX011 (ip), vehicle: methylcellulose (MC)
  T/C: 70 % of control

## CCC1CN1P(=O)(Oc1cccc2ccccc12)N1CC1CC (stereo not given)
dose: 88.0 mg/kg/injection, schedule: Q01DX011 (ip), vehicle: carboxymethylcellulose (CMC)
  T/C: 42 % of control
dose: 88.0 mg/kg/injection, schedule: Q01DX011 (ip), vehicle: methylcellulose (MC)
  T/C: 80 % of control
dose: 175.0 mg/kg/injection, schedule: Q01DX011 (ip), vehicle: methylcellulose (MC)
  T/C: 92 % of control
dose: 350.0 mg/kg/injection, schedule: Q01DX011 (ip), vehicle: methylcellulose (MC)
  T/C: 59 % of control

## CCCCCCOP(=O)(N1CC1C)N1CC1C (stereo not given)
dose: 12.5 mg/kg/injection, schedule: Q01DX011 (ip), vehicle: saline
  T/C: 100 % of control
dose: 100.0 mg/kg/injection, schedule: Q01DX011 (ip), vehicle: saline
  T/C: 13 % of control and 19 % of control and 26 % of control

## CCCCn1cnc2c(SCc3ccccc3F)nc(N)nc21
dose: 6.25 mg/kg/injection, schedule: Q01DX011 (ip), vehicle: methylcellulose (MC)
  T/C: 81 % of control
[8]
  T/C: 41 % of control
[9]
  T/C: 18 % of control
dose: 50.0 mg/kg/injection, schedule: Q01DX011 (ip), vehicle: methylcellulose (MC)
  T/C: 3 % of control
dose: 100.0 mg/kg/injection, schedule: Q01DX011 (ip), vehicle: methylcellulose (MC)
  T/C: 5 % of control

## S=c1nc[nH]c2c1ncn2C1CCCCCC1
dose: 125.0 mg/kg/injection, schedule: Q01DX011 (ip), vehicle: carboxymethylcellulose (CMC)
  T/C: 65 % of control
dose: 250.0 mg/kg/injection, schedule: Q01DX011 (ip), vehicle: carboxymethylcellulose (CMC)
  T/C: 88 % of control
dose: 500.0 mg/kg/injection, schedule: Q01DX011 (ip), vehicle: carboxymethylcellulose (CMC)
  T/C: 87 % of control

## NOCC(=O)O
dose: 6.25 mg/kg/injection, schedule: Q01DX011 (ip), vehicle: water
  T/C: 62 % of control
dose: 12.5 mg/kg/injection, schedule: Q01DX011 (ip), vehicle: other
  T/C: 54 % of control
dose: 12.5 mg/kg/injection, schedule: Q01DX011 (ip), vehicle: water
  T/C: 68 % of control and 70 % of control
dose: 18.75 mg/kg/injection, schedule: Q01DX011 (ip), vehicle: other
  T/C: 65 % of control
dose: 25.0 mg/kg/injection, schedule: Q01DX011 (ip), vehicle: water
  T/C: 29 % of control

## c1ccc2c(c1)ccc1cc3c(ccc4ccccc43)cc12
[8]
  T/C: 24 % of control
[9]
  T/C: 44 % of control
dose: 25.0 mg/kg/injection, schedule: Q01DX011 (ip), vehicle: other
  T/C: 60 % of control
dose: 50.0 mg/kg/injection, schedule: Q01DX011 (ip), vehicle: other
  T/C: 42 % of control
dose: 100.0 mg/kg/injection, schedule: Q01DX011 (ip), vehicle: other
  T/C: 36 % of control
dose: 400.0 mg/kg/injection, schedule: Q01DX011 (ip), vehicle: methylcellulose (MC)
  T/C: 24 % of control and 25 % of control
dose: 600.0 mg/kg/injection, schedule: Q01DX011 (ip), vehicle: methylcellulose (MC)
  T/C: 31 % of control
dose: 600.0 mg/kg/injection, schedule: Q01DX011 (ip), vehicle: other
  T/C: 12 % of control

## Cn1c(=O)c2[nH]c(CCl)nc2n(C)c1=O
[9]
  T/C: 86 % of control

## Nc1nc(-c2cccnc2)nc(N)c1N=O
[4]
  T/C: 120 % of control
[5]
  T/C: 166 % of control
[6]
  T/C: 119 % of control
[7]
  T/C: 81 % of control

## C[C@H]1C[C@@H]2[C@H](C(=O)C[C@@]3(C)[C@H]2CC[C@]3(O)C(=O)CO)[C@@]2(C)C=CC(=O)C=C12
dose: 50.0 mg/kg/injection, schedule: Q01DX011 (sc), vehicle: steriod suspending solution
  T/C: 30 % of control
dose: 100.0 mg/kg/injection, schedule: Q01DX011 (sc), vehicle: steriod suspending solution
  T/C: 23 % of control

## CC(=O)Nc1cc2c(cc1Br)-c1ccccc1C2O (stereo not given)
dose: 35.0 mg/kg/injection, schedule: Q01DX011 (ip), vehicle: saline
  T/C: 43 % of control
dose: 75.0 mg/kg/injection, schedule: Q01DX011 (ip), vehicle: saline
  T/C: 52 % of control
dose: 155.0 mg/kg/injection, schedule: Q01DX011 (ip), vehicle: saline
  T/C: 38 % of control
dose: 210.0 mg/kg/injection, schedule: Q01DX011 (ip), vehicle: saline
  T/C: 23 % of control
